Measurements taken from patent US6610699B2, “Use of L-carnitine and its alkanoyl derivatives in the preparation of medicaments with anticancer activity” (Sigma-Tau Industrie Farmaceutiche Riunite S.p.A., priority 1998, dated 2003).
Marks after values point to notes of the source that are not given here.

Legend:
LOVO human colon cancer = settings: ALC 100 mg/kg qdx18 alone
Procedure: Cell cultures of LOVO human colon cancer, transplanted in hairless mice, were used.
The tumour was inoculated in solid fragments in both flanks of the mice (day 0).
The inoculated tumours were measured with a calliper and when a mean tumour weight of 100 mg was reached (day 7), the animals were divided into 4 groups of 5 animals each according to the following schedule:
On the same day, ALC treatment was initiated and was continued for 18 consecutive days (qdx18) (groups 3 and 4). ALC was administered at the dose of 100 mg/kg with an administration volume of 25 ml/kg.
In the course of the treatment and in the following three weeks at fortnightly intervals, the tumours were measured and tumour volume inhibition was calculated (TVI%, calculated as 100-(mean weight of tumours treated/mean weight of control tumours×100)) as obtained with the various treatments.

Female Wistar rats = test: Taxol-induced peripheral neuropathy: sensory nerve conduction velocity measured on the tail; settings: 5 weeks
Procedure: Female Wistar rats aged 3 months (Charles River) were used, housed at 22±2° C., with 50±15% relative humidity and a 12 hour light/darkness cycle.
The following method was used: the animals, anaesthetised with a gaseous mixture composed of 0.45 halothane, nitrogen protoxide and oxygen, were depilated in the stimulation zone and placed on an operating table. The recordings and stimulations of the sensory responses were done using an Ote Biomedica Phasis II electromyograph. […]
The sensory nerve conduction velocity, expressed in ms, was calculated as the ratio of the distance between the two stimulation points, expressed in mm, to the difference in latency of the waves produced by proximal (the nearest) and distal (the farthest from the dorsal spine) stimulation, expressed in ms.
The velocity was measured in all groups of animals both in basal conditions (prior to any administration) and after 5 weeks of treatment.
The results were expressed as means±standard deviation; significance was assessed using the “t”-test, for both independent and paired data, with a statistical significance cut-off of p<0.05.

Hamsters [1] = test: Bleomycin-induced pulmonary toxicity in hamsters: lung histology; format: in vivo, hamster; settings: day 22
Procedure: (§1) Hamsters weighing 120 g were treated with bleomycin (1 unit) by the intratracheal route (IT) or with an equivalent volume of saline. In addition, the animals were pre-treated with ALC (200 mg/kg) or saline intraperitoneally just before the instillation of bleomycin, followed by daily injections for 1 week. The animals were allowed 3 weeks to recover prior to taking the tissue samples. At the time tissue samples were taken (day 22), one lung of each animal was prepared for histological investigation and the other lung for quantitative determination of hydroxyproline.
The lungs were fixed by insufflation at 20 cm of H2O ex vivo with 10% formaldehyde in PBS (pH 7), embedded in paraffin, sectioned and stained with haematoxylin/eosin. Sections with similar orientation from the portion of the pulmonary lobe—upper, middle and lower, respectively—were examined to verify the presence and degree of inflammatory infiltrate, oedema and interstitial and intra-alveolar fibrosis.

Hamsters [2] = test: Bleomycin-induced pulmonary toxicity in hamsters: lung hydroxyproline content; format: in vivo, hamster; settings: pre-treatment i.p. (ALC 200 mg/kg or saline, daily 1 week)/intratracheal instillation (bleomycin 1 unit or saline); day 22
Procedure: as §1
The hydroxyproline content (one of the main constituents of collagen) was measured using the known Woessner method. Lung samples were homogenised, hydrolysed with NaOH, and then left to oxidise before adding Erlich aldehyde reagent. Duplicate aliquots of each sample were assayed by spectrophotometry and compared with a standard calibration curve obtained with purified hydroxyproline. The hydroxyproline content (HYP) is expressed as mg/lung.

[3] = test system: L-MM3 murine breast cancer cells; test: L-MM3 murine breast cancer in Balb/c mice, taxol and PLC, Experiment A (schedule A)
Procedure: (§2) Cell cultures of L-MM3 murine breast cancer cells were used, cultured at 37° C. in plastic flasks in a humidified atmosphere with 5% CO^2. The cells were grown in DMEM supplemented with 10% FCS and in the presence of 2 mM L-glutamine and 80 μg/ml of gentamicin. The subconfluent cells were collected during the exponential growth phase using trypsin-EDTA and re-suspended in DMEM. They were then injected subcutaneously in female Balb/c mice weighing 20 g at a density of 4×10^5.
(§3) The tumour was measured with a calliper three times a week as soon as it became palpable. The tumour mass is calculated on the basis of the measurements of the two dimensions (length and width), expressed in mm, according to the following formula: [formula]
(§4) If we consider conventionally a tumour density equal to 1, the result is that the tumour volume is equal to (mm^3=mg).
(§5) The agent is weighed, solubilised in the specific vehicle (12 mg/ml), and stored at +4° C., sheltered from the light. At the time of use, it is diluted 1:4 with saline solution in phosphate buffer (PBS, SIGMA) and injected.
(§6) Cremophor is diluted 1:1 with ethanol and stored sheltered from the light. On the day of treatment it is diluted 1:4 with PBS.

[4] = Taxol-induced weight loss: body weight; format: in vivo, rat; settings: for Body weight, BASAL: prior to starting treatment; for Body weight, % vs BASALE / Body weight, % vs SHAM: 5 weeks; for Body weight, 5 WEEKS: end of treatment
Excerpt: The animals used in the preceding experimental model were weighed prior to starting treatment (basal values) and at the end of treatment.

[5] = test system: L-MM3 murine breast cancer cells; test: L-MM3 murine breast cancer in Balb/c mice, taxol and PLC, Experiment B (schedule B)
Procedure: as §2, §3, §4, §5, §6

## CC(=O)O[C@H](CC(=O)[O-])C[N+](C)(C)C [ALC, acetyl L-carnitine]
LOVO human colon cancer
  effect on tumour growth (in words): no effect on tumour growth
Female Wistar rats; acetyl L-carnitine with taxol 8 mg/kg
  Sensory nerve conduction velocity, % vs TAXOL: 5%
Female Wistar rats; acetyl L-carnitine with taxol 16 mg/kg
  Sensory nerve conduction velocity, % vs TAXOL: 9%
Hamsters [1]; animals pre-treated with ALC and given bleomycin IT
  lung histology (in words): a number of fibrotic areas, which, however, appeared thinner with less dense areas of collapse
Hamsters [1]; pre-treatment/IT instillation
  lung histology (in words): normal alveolar architecture
Hamsters [2]
  hydroxyproline content (HYP): 0.801 mg/lung

## CC(=O)O[C@H]1C(=O)[C@@]2(C)[C@H]([C@H](OC(=O)c3ccccc3)[C@]3(O)C[C@H](OC(=O)[C@H](O)[C@@H](NC(=O)c4ccccc4)c4ccccc4)C(C)=C1C3(C)C)[C@]1(OC(C)=O)CO[C@@H]1C[C@@H]2O [Taxol, paclitaxel, reference compound]
[3]
  Animals with tumours/total number of animals, Day 22: 6/13
  Animals with tumours/total number of animals, Day 25: 7/13
  Animals with tumours/total number of animals, Day 28: 9/13
  Animals with tumours/total number of animals, Day 36: 11/13
  Animals with tumours/total number of animals, Day 46: 11/13
[3]; taxol 30 mg/kg i.p. days 15,17,19,21, PLC 100 mg/kg s.c. days 12-24
  Animals with tumours/total number of animals, Day 19: 6/13
[4]; taxol 8 mg/kg groups
  Body weight, BASAL: 210 ± 9.1
[4]; taxol 8 mg/kg
  Body weight, % vs BASALE: +13** %
  Body weight, % vs SHAM: +1%
  Body weight, 5 WEEKS: 237 ± 20.8
[4]; taxol 16 mg/kg groups
  Body weight, BASAL: 212 ± 12.5
[4]; taxol 16 mg/kg
  Body weight, % vs BASALE: −15** %
  Body weight, % vs SHAM: −23● %
  Body weight, 5 WEEKS: 180 ± 16.0
[5]
  Animals with tumours/total animals, Day 45: 5/10
  Animals with tumours/total animals, Day 59: 6/10
  Tumour size, Day 26: 0.1 ± 0.6
  Tumour size, Day 31: 0.2 ± 0.2
  Tumour size, Day 37: 0.45 ± 0.2
  Tumour size, Day 41: 1.750 ± 1.1
  Tumour size, Day 53: 5.000 ± 2.2
  Tumour size, Day 59: 5.6 ± 2.2
[5]; day of inoculation
  Tumour size, Day 0: 0
[5]; taxol 30 mg/kg i.p. days 8,10,12,14, PLC 100 mg/kg s.c. to day 59
  Animals with tumours/total animals, Day 31: 2/10
